Data taken from patent US9365830B2, “Agents and methods for inhibiting human pluripotent stem cell growth” (VIACYTE, INC., priority 2010, dated 2016).
“Also recorded” adds a separate entry of the source. Where two headings read alike, the source gives them in different places.

Assays:
Type in all cases: cell-based, human
hESCs = test: Secondary screen, lowest effective dose on hESCs; settings: lowest concentration that elicited cytotoxicity, range 0.1 to 50 μM, read-out: ED hESC (lowest effective dose)
Method: To expand the number of potential candidate hESC cytotoxic and inhibitory compounds, the complete LOPAC1280™ collection (containing 1,280 compounds) was screened. In the primary screen, cytotoxicity was tested on undifferentiated hESCs (about 3×10^4 BG01 cells) in 16 standard 96-well trays, in DC-HAIF defined medium on growth factor-reduced MATRIGEL™ diluted 1:200, which were fed daily (FIG. 7A). 10 μM of each compound was added to the hESCs one day after plating, and the cells were cultured for an additional 2 days. Plates were then fixed and stained for alkaline phosphatase (AP) to identify relative decreases in proliferation or growth of hESCs (as reduced AP staining), indicative of lower proportions of hESCs. See the circled wells in FIG. 7A.
(§1) Using a range of different concentrations from 0.1 to 50 μM, the forty compounds in Table 6 were re-screened (secondary screen) using hESCS and NPCs. The effective dose (ED) was defined as the lowest concentration of a compound that elicited cytotoxicity during the secondary screen. […] The darker wells were indicative of the increased numbers or percentages of proliferating or growing pluripotent stem cells in the wells. In addition, these 40 compounds were screened on differentiating definitive endoderm (DE) cell cultures in 96-well plate impedance assays (described above) to determine which of these compounds were not cytotoxic to definitive endoderm cells at the lowest effective dose on either hESC or NPC. […] See “ACEA DE” column in Table 6.

NPCs = test: Secondary screen, lowest effective dose on NPCs; settings: lowest concentration that elicited cytotoxicity, range 0.1 to 50 μM, read-out: ED NPC (lowest effective dose)
Method: In addition, the complete LOPAC1280™ collection was also screened for effects on neural progenitor cells (NPCs) that were derived from the hESCs. Neural progenitors were plated in serum-free MedII conditioned medium at 6×10^4 cells/well and fed daily. Two days after plating, 10 μM of each compound was added and the cells were cultured for an additional 2 days. […] Reduced crystal violet staining was indicative of lower proportions of NPCs. See circled wells in FIG. 7B. The left and right columns of the LOPAC1280™ plates from which the compounds were dispensed were empty and served as untreated controls. […] See Table 6 below listing the name and class of activity of each candidate compound identified in this screen (except chelerythrine chloride, which is listed in Table 5). ChCl was not included in the subsequent round of screening. Therefore only 40 compounds were tested further.
as §1

[1] = tested on: differentiating definitive endoderm (DE) cell cultures; test: 96-well plate impedance assay (ACEA) on differentiating definitive endoderm at lowest effective dose; set-up: key: Viable: Compounds that did not appear to be cytotoxic toward differentiating DE cultures were marked as “viable”, meaning that the compound did not affect the survival, growth, proliferation or differentiation of the differentiated cells; settings: at the lowest effective dose on either hESC or NPC
Source text: (§2) The impedance assay on the hESCs using the compounds in Table 4 above gave greater than twenty (20) hits. However, the ideal candidate compound of the present invention should not only be inhibitory or cytotoxic to human pluripotent stem cells, such as hESCs or hIPSCs, but should at the same time have no effect on cell viability of differentiated or differentiating cell populations including Stage 1, 2, 3, 4 and 5 type cells cultures (definitive endoderm, foregut endoderm, posterior foregut, pancreatic endoderm and endocrine cells, respectively). […] Approximately 3×10^4 hES cells were plated per well and grown for 24 hrs in DC-HAIF defined medium (i.e. StemPro® hESC SFM medium (Life Technologies, Carlsbad, Calif.). Stage 1 or definitive endoderm differentiation was then induced by changing the medium and culturing in RPMI, 100 ng/mL Activin A, and 10 ng/mL of FGF2. […] of GSK-3 beta Inhibitor 15 (Calbiochem #361558) as added to the culture for the first 24 hours of differentiation only. 10 μM of each of the candidate compounds were added about 48 hours or 2 days after differentiation was induced (see FIGS. 3 C & D, large arrowhead), and the cells were cultured for an additional 2 days.
as §1

[2] = tested on: differentiating Stage 1 cultures (definitive endoderm); test: Secondary screen on differentiating Stage 1 cultures in 6-well trays; settings: compounds added to differentiating Stage 1 cultures
Source text: as §2
Secondary Screen with Selected Compounds. A secondary screen using 9 of the 10 candidate compounds in Table 5 was performed by adding the compounds to differentiating Stage 1 cultures (definitive endoderm) as described above. For the secondary screen, larger standard 6-well trays were used instead of the RT-CEAS 96-well culture plates used in primary screens employing impedance assays. Only 9 of the 10 compounds in Table 5 were tested because the 10th was not available in sufficient quantity at the time the assays were performed. In the larger, 6-well trays, 5 of the 9 compounds listed in Table 5 had no effect on viability of differentiating cells or differentiated definitive endoderm. […] This assay also confirmed that the viability of differentiating cells and differentiated definitive endoderm cells was apparently consistent regardless of the numbers of cells tested, or the size, volume, or source of the culture vessel.

Compound | minimal effective concentration (hESCs) [µM] | minimal effective concentration (NPCs) [µM] | ACEA DE [1] | Viability of Definitive Endoderm [2] | minimal effective concentration (hESCs; Homo sapiens) [µM] | minimal effective concentration (NPCs; Homo sapiens, 48 h) [µM]
22, 23-dihydroavermectin B1a+22,23-dihydroavermectin B1b [Ivermectin] | 5 | >50 | Viable |  |  | 
CN(N=O)c1cc(O)ccc1O [Dephostatin] |  |  |  | capable of growth and proliferation; also recorded: Viable |  | 
N#C/C(=C\c1ccc(O)c(O)c1)C(=O)NCc1ccccc1 [Tyrphostin AG 490] | 25 | 10 | Viable | capable of growth and proliferation; also recorded: Viable |  | 
CN(C)S(=O)(=O)c1ccc2c(c1)/C(=C/c1cc3c([nH]1)CCCC3)C(=O)N2 [SU 6656] |  |  | Viable | capable of growth and proliferation; also recorded: Viable | 25 | > 50
